# Key:
# [1] = Perm of brown hair, hydrogen water vs hydrogen peroxide as second agent; conditions: 30 washes, hydrogen water 10 times at 2-minute intervals, hydrogen peroxide left 10 minutes
# Experimental: According to the method used in a general beauty salon using a rod, cysteine treatment as a reduction agent, intermediate washing, setting, oxidation agent treatment, and measurement after washing were performed in the order. Brown hair was treated with a reduction agent (Hair 119 Clinic SuBoon Perm, Eson Chemical, Korea) and left at 37° C. for 5 minutes. […] Then the hair was separated. After washing them once, the length of perm hair was measured. After that, the perm hair length was measured when repeatedly washed 30 times, once a day (FIG. 3C). Natural Shampoo (Repit, Korea) was used as a cleaning agent. A method of preparing hydrogen water is as follows. After adding NaCl to distilled water to prepare a 0.05% NaCl solution, salted distilled water was boiled for about 5 minutes to remove dissolved oxygen as much as possible, and then quenched to 25° C. (water cooling).
# [2] = Cold perm with 25°C electrolyzed water sprayed as second agent; conditions: hydrogen peroxide as second agent; basis of commercial suitability; hair 27 cm
# Experimental: About 50 strands of natural black hair were fixed and cut to 27 cm in length and used in the experiment. The perm process was performed as follows. The natural black hair was fixed and washed according to the above standards. After washing, the dried hair bundle was reduced by treatment with the first agent (Hair 119 Clinic SuBoon Perm, Eson Chemical, Korea) at 37° C. for 25 minutes. After the reduction process, the first agent was removed by washing with distilled water to increase the reproducibility of the wave efficiency. […] After the application was finished, the rod was removed.
# [3] = Straight perm of curly hair; conditions: second agent (gel with 0.5% xanthan gum for the waters) oxidized 10 minutes
# Experimental: The first agent used in straight perm was Standard of Hair […] Two Way Straight (UCL, Incheon). The second agent used in the perm was a mixture of Standard of Hair […] Two Way Straight (UCL, Incheon) and xanthan gum in each hydrogen water and electrolyzed water. Tap water was used to generate the used electrolyzed hydrogen water and electrolyzed water. […] To each of these, xanthan gum was added to 0.5% and mixed to form a gel. The perm process proceeded as follows. The first agent was applied to the hair and softened at 37° C. for 30 minutes. […] After the oxidation process was completed, the hair was washed, photographed, and measured.
compound,measurement,setting,value
OO [hydrogen peroxide],sagging of wave,[1],sagging was seen in 30 washes
same,length of the perm hair after washing once,[2],about 22 cm
same,result of straight perm treatment,[3],curly hair was well straightened
same,split ends / hair surface,"bleached, dyed hair after perm",had split ends
same,dye eluted,"washing once after the perm treatment, from L value",11.43%

# Source: US20220322803A1 (KONKUK UNIVERSITY INDUSTRIAL COOPERATION CORP, priority 2019, published 2022)
